Source: the supplement of paper PMC10307832

Experiments:
Assay in all cases: relative viability (nuclei count vs DMSO), 5 days (fraction); higher = more cells survive
[1] = compound: COc1cc(N2CCC(N3CCN(C)CC3)CC2)ccc1Nc1ncc(Cl)c(Nc2ccccc2S(=O)(=O)C(C)C)n1 [NVP-TAE684] + O=C(c1cc(Cc2n[nH]c(=O)c3ccccc23)ccc1F)N1CCN(C(=O)C2CC2)CC1 [Olaparib] (partner 8 µM)
In short: (§1)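 Relative viability is defined as nuclei in treated wells over nuclei in vehicle wells. Duplicate plates were run and medians reported. Lung cancer cell lines in 1536-well plates were dosed by pin tool one day after seeding, with one drug or with a fixed anchor-drug dose plus five library-drug doses (not always all listed) in √10 steps, and nuclei were counted after 5 days.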

[2] = compound: C#Cc1cccc(Nc2ncnc3cc(OC)c(OCCCCCCC(=O)NO)cc23)c1 [CUDC-101] + CS(=O)(=O)N1CCN(Cc2cc3nc(-c4cccc5[nH]ncc45)nc(N4CCOCC4)c3s2)CC1 [Pictilisib] (partner 1 µM)
In short: as §1

[3] = compound: C1=CC=C2C(=C1)N=C(S2)C(C#N)C3=NC(=NC=C3)NCCC4=CN=CC=C4 + C[C@@H](Oc1cc(-c2cnn(C3CCNCC3)c2)cnc1N)c1c(Cl)ccc(F)c1Cl [Crizotinib] (partner 1 µM)
In short: as §1

[4] = compound: C#Cc1cccc(Nc2ncnc3cc(OC)c(OCCCCCCC(=O)NO)cc23)c1 [CUDC-101] + Cc1nc(NC(=O)N2CCC[C@H]2C(N)=O)sc1-c1ccnc(C(C)(C)C(F)(F)F)c1 [Alpelisib] (partner 2 µM)
In short: as §1

Cell Line | relative viability ([1]; first compound 0.2 µM) | relative viability ([1]; first compound 0.6325 µM) | relative viability ([1]; first compound 2 µM) | relative viability ([2]; first compound 0.01 µM) | relative viability ([2]; first compound 0.03162 µM) | relative viability ([2]; first compound 0.1 µM) | relative viability ([2]; first compound 0.3162 µM) | relative viability ([2]; first compound 1 µM) | relative viability ([3]; first compound 0.005 µM) | relative viability ([3]; first compound 0.01581 µM) | relative viability ([3]; first compound 0.05 µM) | relative viability ([3]; first compound 0.1581 µM) | relative viability ([3]; first compound 0.5 µM) | relative viability ([4]; first compound 0.01 µM) | relative viability ([4]; first compound 0.03162 µM) | relative viability ([4]; first compound 0.1 µM) | relative viability ([4]; first compound 0.3162 µM) | relative viability ([4]; first compound 1 µM)
NCI-H2228 | 0.36 | 0.384 | 0.109 | 0.246 | 0.485 | 0.494 | 0.36 | 0.252 | 0.464 | 0.444 | 0.483 | 0.454 | 0.386 | 0.795 | 0.802 | 0.625 | 0.563 | 0.491
NCI-H2347 | 0.573 | 0.57 | 0.49 | 0.711 | 0.658 | 0.794 | 0.436 | 0.569 | 0.724 | 0.669 | 0.533 | 0.699 | 0.723 | 1.09 | 1.08 | 1.09 | 1.11 | 1.03
NCI-H2405 | 0.923 | 0.825 | 0.481 | 0.462 | 0.419 | 0.642 | 0.624 | 0.336 | 0.819 | 0.915 | 0.872 | – | 0.809 | 0.952 | 0.574 | 0.87 | 1.22 | 0.603
NCI-H3122 | 0.342 | 0.225 | 0.111 | 0.539 | 0.57 | 0.692 | 0.73 | 0.54 | 0.245 | 0.305 | 0.279 | 0.296 | 0.296 | 0.666 | 0.83 | 0.808 | 0.875 | 0.969
PC-3 [JPC-3] | 1.32 | 1.02 | – | 0.756 | 0.632 | 0.277 | 0.348 | 0.245 | 0.712 | 1.07 | 1.01 | 0.948 | 0.846 | 1.04 | 0.999 | 0.775 | 0.683 | 0.307
